# From publication PMC8815882, “Screening the pandemic response box identified benzimidazole carbamates, Olorofim and ravuconazole as promising drug candidates for the treatment of eumycetoma” (PLoS Neglected Tropical Diseases, 2022)
# Read-outs that look alike come from different tables or passages of the source.
# Columns and labels:
# M. mycetomatis MM55 = assay: IC50 determination, 2-fold dilution series 16 to 0.03125 μM; assay type: cell-based, Madurella mycetomatis
# [1] = system: M. mycetomatis genome strain MM55; assay: CLSI M38-A2 based in vitro susceptibility screening (XTT or resazurin), growth at fixed concentration; assay type: cell-based, Madurella mycetomatis; settings: Madurella mycetomatis; for Percent fungal survival at 100 µM: replicate 2, M. mycetomatis MM55, read-out: Percentage survival at 100um, 100 uM A (second replicate column)
# [2] = system: ten different M. mycetomatis isolates; assay: MIC / MIC50 determination (XTT) in ten M. mycetomatis isolates; assay type: cell-based, Madurella mycetomatis; settings: for MIC50 / MIC: Madurella mycetomatis
# [3] = system: M. mycetomatis isolate MM55; assay: M. mycetomatis grain infection model in G. mellonella larvae, survival; assay type: in vivo, Galleria mellonella; parameters: In vivo efficacy, Larvae survival %: concentration or dose not given beside the values; settings: for Effect on larvae survival Day 4 (words): 20 μM per larvae, vs infected control, day four
# [4] = Madurella mycetomatis, MM55, Table 2, M. mycetomatis MM55, read-out: IC50
# [5] = Madurella mycetomatis, MM55, mean of replicates, read-out: IC50 mean
# [6] = Madurella mycetomatis, MM55, mean of replicates, read-out: IC90 mean
# [7] = Madurella mycetomatis, MM55, replicate 1, read-out: IC50 1 um
# [8] = Madurella mycetomatis, MM55, replicate 1, read-out: IC90 1 um
# [9] = Madurella mycetomatis, MM55, replicate 2, read-out: IC50 2 um
# [10] = Madurella mycetomatis, MM55, replicate 2, read-out: IC90 2 um
# [11] = Madurella mycetomatis, MM55, replicate 3, read-out: IC50 3 um
# [12] = Madurella mycetomatis, MM55, replicate 3, read-out: IC90 3 um
# [13] = mean of three, M. mycetomatis MM55, read-out: Percentage survival at 25um, 25 uM mean
# [14] = replicate A, M. mycetomatis MM55, read-out: Percentage survival at 25um, 25 um A
# [15] = replicate B, M. mycetomatis MM55, read-out: Percentage survival at 25um, 25 uM B
# [16] = replicate C, M. mycetomatis MM55, read-out: Percentage survival at 25um, 25 uM C
# [17] = mean of three, M. mycetomatis MM55, read-out: Percentage survival at 100um, 100 uM mean
# [18] = replicate 1, M. mycetomatis MM55, read-out: Percentage survival at 100um, 100 uM A (first replicate column)
# [19] = replicate 3, M. mycetomatis MM55, read-out: Percentage survival at 100um, 100 uM A (third replicate column)
# [20] = median MIC over ten M. mycetomatis isolates, no asterisk, read-out: MIC50
# [21] = over the tested M. mycetomatis isolates, read-out: MIC50 mean
# [22] = isolate CBS247.48, read-out: MIC CBS247.48
# [23] = isolate MM14, read-out: MIC MM14
# [24] = isolate MM45, read-out: MIC MM45
# [25] = isolate MM55, read-out: MIC MM55
# [26] = isolate ParijsAl1, read-out: MIC ParijsAl1
# [27] = isolate Peru72012, read-out: MIC Peru72012
# [28] = G. mellonella larvae infected with M. mycetomatis
smiles,measurement,setting,value
"N#C/C(=C1/SC[C@@H](c2ccc(Cl)cc2Cl)S1)n1ccnc1 [MMV1782224, Luliconazole, reference compound]",Drug static or cidal,M. mycetomatis MM55; M. mycetomatis,Cidal
same,IC50,M. mycetomatis MM55; [4],< 20 nM
same,IC50,M. mycetomatis MM55; [5],< 98 nM
same,IC90,M. mycetomatis MM55; [6],< 98 nM
same,IC50,M. mycetomatis MM55; [7],< 98 nM
same,IC90,M. mycetomatis MM55; [8],< 98 nM
same,IC50,M. mycetomatis MM55; [9],< 98 nM
same,IC90,M. mycetomatis MM55; [10],< 98 nM
same,IC50,M. mycetomatis MM55; [11],< 98 nM
same,IC90,M. mycetomatis MM55; [12],< 98 nM
same,IC50,"M. mycetomatis MM55; Table 2, M. mycetomatis MM55, read-out: IC50",< 30 nM
same,activity at 25 µM,[1]; [13],1.75%
same,activity at 25 µM,[1]; [14],-0.617%
same,activity at 25 µM,[1]; [15],1.37%
same,activity at 25 µM,[1]; [16],4.51%
same,activity at 100 µM,[1]; [17],6.85%
same,activity at 100 µM,[1]; [18],-0.151%
same,Percent fungal survival at 100 µM,[1],8.79%
same,activity at 100 µM,[1]; [19],11.9%
same,MIC50,[2]; [20],< 0.03 µM
same,MIC50,[2]; [21],< 0.0312 µM
same,MIC,[2]; [22],< 0.0312 µM
same,MIC,[2]; [23],< 0.0312 µM
same,MIC,[2]; [24],< 0.0312 µM
same,MIC,[2]; [25],< 0.0312 µM
same,MIC,"[2]; isolate P1, read-out: MIC P1",< 0.0312 µM
same,MIC,[2]; [26],< 0.0312 µM
same,MIC,[2]; [27],< 0.0312 µM
same,MIC,"[2]; isolate So1, read-out: MIC So1",< 0.0312 µM
same,MIC,"[2]; isolate i1, read-out: MIC i1",< 0.0312 µM
same,MIC,"[2]; isolate i11, read-out: MIC i11",< 0.0312 µM
same,MIC50 (μM),"[2]; median MIC over ten M. mycetomatis isolates, no asterisk",<0.03 (≦0.03) μM
same,Effect on larvae survival Day 4 (words),[3],prolonged larvae survival
same,"In vivo efficacy, Enhanced survival compared to control?",[3]; [28],no
same,"In vivo efficacy, Larvae survival %",[3]; [28],11.1%
O=C(/C(=C/c1ccc(Cl)cc1Cl)n1ccnc1)c1ccc(Cl)cc1 [MMV1634491],Drug static or cidal,M. mycetomatis MM55; M. mycetomatis,Static
same,IC50,M. mycetomatis MM55; [4],2810 nM
same,IC50,M. mycetomatis MM55; [5],2810 nM
same,IC90,M. mycetomatis MM55; [6],4700 nM
same,IC50,M. mycetomatis MM55; [7],2220 nM
same,IC90,M. mycetomatis MM55; [8],4360 nM
same,IC50,M. mycetomatis MM55; [9],2880 nM
same,IC90,M. mycetomatis MM55; [10],4780 nM
same,IC50,M. mycetomatis MM55; [11],3340 nM
same,IC90,M. mycetomatis MM55; [12],4950 nM
same,activity at 25 µM,[1]; [13],0.641%
same,activity at 25 µM,[1]; [14],-1.32%
same,activity at 25 µM,[1]; [15],0.287%
same,activity at 25 µM,[1]; [16],2.96%
same,activity at 100 µM,[1]; [17],7.66%
same,activity at 100 µM,[1]; [18],-1.73%
same,Percent fungal survival at 100 µM,[1],4.59%
same,activity at 100 µM,[1]; [19],20.1%
same,MIC50,[2]; [20],1 µM
same,MIC50,[2]; [21],4 µM
same,MIC,[2]; [22],4 µM
same,MIC,[2]; [23],4 µM
same,MIC,[2]; [24],2 µM
same,MIC,[2]; [25],4 µM
same,MIC,"[2]; isolate P1, read-out: MIC P1",4 µM
same,MIC,[2]; [26],4 µM
same,MIC,[2]; [27],4 µM
same,MIC,"[2]; isolate So1, read-out: MIC So1",4 µM
same,MIC,"[2]; isolate i1, read-out: MIC i1",1 µM
same,MIC,"[2]; isolate i11, read-out: MIC i11",4 µM
same,"In vivo efficacy, Enhanced survival compared to control?",[3]; [28],no
same,"In vivo efficacy, Larvae survival %",[3]; [28],8.9%
"CCCCC(CC)CNC(=N)NC(=N)NCCCCCCNC(=N)NC(=N)NCC(CC)CCCC (centres unmarked) [MMV396785, Alexidine, reference compound]",Drug static or cidal,M. mycetomatis MM55; M. mycetomatis,Static
same,IC50,M. mycetomatis MM55; [4],2560 nM
same,IC50,M. mycetomatis MM55; [5],2560 nM
same,IC90,M. mycetomatis MM55; [6],4260 nM
same,IC50,M. mycetomatis MM55; [7],2160 nM
same,IC90,M. mycetomatis MM55; [8],3950 nM
same,IC50,M. mycetomatis MM55; [9],2700 nM
same,IC90,M. mycetomatis MM55; [10],4400 nM
same,IC50,M. mycetomatis MM55; [11],2830 nM
same,IC90,M. mycetomatis MM55; [12],4420 nM
same,activity at 25 µM,[1]; [13],1.02%
same,activity at 25 µM,[1]; [14],-0.617%
same,activity at 25 µM,[1]; [15],1.64%
same,activity at 25 µM,[1]; [16],2.05%
same,activity at 100 µM,[1]; [17],7.33%
same,activity at 100 µM,[1]; [18],-1.99%
same,Percent fungal survival at 100 µM,[1],7.87%
same,activity at 100 µM,[1]; [19],16.1%
same,MIC50,[2]; [20],2 µM
same,MIC50,[2]; [21],2 µM
same,MIC,[2]; [22],1 µM
same,MIC,[2]; [23],2 µM
same,MIC,[2]; [24],2 µM
same,MIC,[2]; [25],2 µM
same,MIC,"[2]; isolate P1, read-out: MIC P1",2 µM
same,MIC,[2]; [26],4 µM
same,MIC,[2]; [27],4 µM
same,MIC,"[2]; isolate So1, read-out: MIC So1",2 µM
same,MIC,"[2]; isolate i1, read-out: MIC i1",2 µM
same,MIC,"[2]; isolate i11, read-out: MIC i11",2 µM
same,"In vivo efficacy, Enhanced survival compared to control?",[3]; [28],no
same,"In vivo efficacy, Larvae survival %",[3]; [28],2.2%
Clc1ccc(COC(Cn2ccnc2)c2ccc(Cl)cc2Cl)c(Cl)c1 (centres unmarked) [MMV002722],Drug static or cidal,M. mycetomatis MM55; M. mycetomatis,Cidal
same,IC90,M. mycetomatis MM55; [6],1230 nM
same,IC90,M. mycetomatis MM55; [8],750 nM
same,IC90,M. mycetomatis MM55; [10],2600 nM
same,IC90,M. mycetomatis MM55; [12],340 nM
same,activity at 25 µM,[1]; [13],1.83%
same,activity at 25 µM,[1]; [14],0.653%
same,activity at 25 µM,[1]; [15],1.37%
same,activity at 25 µM,[1]; [16],3.48%
same,activity at 100 µM,[1]; [17],8.62%
same,activity at 100 µM,[1]; [18],1.56%
same,Percent fungal survival at 100 µM,[1],6.95%
same,activity at 100 µM,[1]; [19],17.4%
same,MIC50,[2]; [21],0.125 µM
same,MIC,[2]; [22],0.125 µM
same,MIC,[2]; [25],0.25 µM
same,MIC,"[2]; isolate P1, read-out: MIC P1",0.06 µM
same,MIC,[2]; [26],> 0.03 µM
same,MIC,[2]; [27],0.06 µM
same,MIC,"[2]; isolate So1, read-out: MIC So1",0.125 µM
same,MIC,"[2]; isolate i1, read-out: MIC i1",> 0.03 µM
same,MIC,"[2]; isolate i11, read-out: MIC i11",0.5 µM
same,"In vivo efficacy, Enhanced survival compared to control?",[3]; [28],no
same,"In vivo efficacy, Larvae survival %",[3]; [28],8.9%
"Clc1cc(Cl)c2c(c1)CCc1ccccc1C2n1ccnc1 (centres unmarked) [MMV1634492, Eberconazole, reference compound]",Drug static or cidal,M. mycetomatis MM55,Cidal
same,IC50,M. mycetomatis MM55; [4],720 nM
same,IC90,"M. mycetomatis MM55; Madurella mycetomatis, MM55, read-out: IC90 mean",1290 nM
same,IC50,"M. mycetomatis MM55; Madurella mycetomatis, MM55, replicate 1, read-out: IC50 1",580 nM
same,IC90,"M. mycetomatis MM55; Madurella mycetomatis, MM55, replicate 1, read-out: IC90 1",1300 nM
same,IC50,"M. mycetomatis MM55; Madurella mycetomatis, MM55, replicate 2, read-out: IC50 2",780 nM
same,IC90,"M. mycetomatis MM55; Madurella mycetomatis, MM55, replicate 2, read-out: IC90 2",1210 nM
same,IC50,"M. mycetomatis MM55; Madurella mycetomatis, MM55, replicate 3, read-out: IC50 3",800 nM
same,IC90,"M. mycetomatis MM55; Madurella mycetomatis, MM55, replicate 3, read-out: IC90 3",1350 nM
same,activity at 25 µM,"[1]; mean, read-out: Percentage survival at 25um, 25 uM mean",-1.12%
same,activity at 25 µM,"[1]; replicate A, read-out: Percentage survival at 25um, 25 um A",-3.02%
same,activity at 25 µM,"[1]; replicate B, read-out: Percentage survival at 25um, 25 uM B",-4.98%
same,activity at 25 µM,"[1]; replicate C, read-out: Percentage survival at 25um, 25 uM C",4.64%
same,activity at 100 µM,"[1]; mean, read-out: Percentage survival at 100um, 100 uM mean",3.3%
same,activity at 100 µM,"[1]; replicate (first column), read-out: Percentage survival at 100um, 100 uM A",-3.84%
same,activity at 100 µM,"[1]; replicate (second column), read-out: Percentage survival at 100um, 100 uM A",6.56%
same,activity at 100 µM,"[1]; replicate (third column), read-out: Percentage survival at 100um, 100 uM A",7.19%
same,MIC50,[2]; [20],0.5 µM
same,MIC50,"[2]; over the isolates tested, read-out: MIC50 mean",0.5 µM
same,MIC,[2]; [22],2 µM
same,MIC,[2]; [23],0.125 µM
same,MIC,[2]; [24],4 µM
same,MIC,[2]; [25],0.5 µM
same,MIC,"[2]; isolate P1, read-out: MIC P1",1 µM
same,MIC,[2]; [26],0.125 µM
same,MIC,[2]; [27],0.5 µM
same,MIC,"[2]; isolate So1, read-out: MIC So1",0.125 µM
same,MIC,"[2]; isolate i1, read-out: MIC i1",0.0625 µM
same,MIC,"[2]; isolate i11, read-out: MIC i11",1 µM
same,Effect on larvae survival Day 4 (words),[3],prolonged larvae survival
same,"In vivo efficacy, Enhanced survival compared to control?",[3]; in vivo,no
same,"In vivo efficacy, Larvae survival %",[3]; in vivo,13.3%
